According to patent publication US6737383B1, “Herbicidal oxadiazolidines” (priority 1999, dated 2004):

Experiments:
cocklebur = assay: Test B pre/postemergence cocklebur; assay type: in vivo, Xanthium strumarium
Method in brief: (§1)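 Test chemicals in a non-phytotoxic solvent mixture with surfactant were sprayed preemergence onto planted seeds and postemergence onto plants 2 to 18 cm tall (1- to 4-leaf stage). After twelve to sixteen days in a greenhouse, injury was visually rated against untreated controls from 0 (no effect) to 10 (complete control).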

rape = assay: Test B pre/postemergence rape; assay type: in vivo, Brassica napus
Method in brief: as §1

bamyardgrass = assay: Test B flood test barnyardgrass; assay type: in vivo, Echinochloa crus-galli; conditions: for Plant response rating, Barnyardgrass (0 to 10 scale, 0 is no effect, 10 is complete control) / Barnyardgrass plant response rating (0 to 10 scale, 0 is no effect, 10 is complete control): visual evaluation after twelve to sixteen days; for Barnyardgrass plant response rating (0 to 10 scale, 0 is no effect, 10 is complete control): under heading Pre-emergence
Method in brief: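 Each value is a visual injury score relative to controls, with 10 meaning complete control and 0 no effect. Evaluation took place twelve to sixteen days after the 2-leaf-stage plants were treated and kept in the greenhouse.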

sugar beet = assay: Test B pre/postemergence sugar beet; assay type: in vivo, Beta vulgaris
Method in brief: as §1

[1] = Postemergence, Rate 125 g/ha, scale 0 to 10, 0 is no effect, 10 is complete control
[2] = Postemergence, Rate 250 g/ha, scale 0 to 10, 0 is no effect, 10 is complete control
[3] = Preemergence, Rate 62 g/ha, scale 0 to 10 (0 no effect, 10 complete control)
[4] = Preemergence, Rate 250 g/ha, scale of 0 to 10 where 0 is no effect and 10 is complete control
[5] = Preemergence, Rate 500 g/ha, scale of 0 to 10 where 0 is no effect and 10 is complete control
[6] = Rate 62 g/ha, Postemergence, scale of 0 to 10 where 0 is no effect and 10 is complete control
[7] = Rate 500 g/ha, Postemergence, scale 0 to 10, 0 no effect, 10 complete control
[8] = Rate 62 g/ha, flood test species, Pre-emergence
[9] = Rate 125 g/ha, flood test species
[10] = Rate 250 g/ha, Pre-emergence, flood-test species, scale 0 to 10, 0 is no effect, 10 is complete control
[11] = Rate 500 g/ha, Pre-emergence, flood test species, scale 0 to 10 (0 no effect, 10 complete control)
[12] = Postemergence, Rate 62 g/ha, scale 0 to 10, 0 is no effect, 10 is complete control
[13] = Postemergence, Rate 250 g/ha, scale 0 to 10, 0 no effect, 10 complete control
[14] = Preemergence, Rate 125 g/ha, scale 0 to 10 (0 no effect, 10 complete control)
[15] = Preemergence, Rate 500 g/ha, scale 0 (no effect) to 10 (complete control)
[16] = Rate 125 g/ha, Postemergence, scale 0 to 10, 0 no effect, 10 complete control
[17] = Postemergence, Rate 1000 g/ha, scale 0 to 10 (0 no effect, 10 complete control)
[18] = Rate 125 g/ha, Postemergence, scale of 0 to 10 where 0 is no effect and 10 is complete control
[19] = Rate 125 g/ha, Preemergence, scale of 0 to 10 where 0 is no effect and 10 is complete control
[20] = Rate 250 g/ha, Postemergence, scale of 0 to 10 where 0 is no effect and 10 is complete control
[21] = Rate 1000 g/ha, Preemergence, scale 0 to 10 (0 no effect, 10 complete control)

Compound: CC(C)N(C(=O)n1oc(=O)n(CCl)c1=O)c1ccc(F)cc1 [Compound 376]
- Plant response rating, Cocklebur (cocklebur; [1]): 0
- Plant response rating, Cocklebur (cocklebur; [2]): 0
- Plant response rating, Cocklebur (cocklebur; [3]): 0
- Cocklebur plant response rating (0 to 10 scale) (cocklebur; Preemergence, Rate 125 g/ha): 0
- Cocklebur plant response rating (cocklebur; [4]): 0
- Cocklebur plant response rating (cocklebur; [5]): 0
- Cocklebur plant response rating (cocklebur; [6]): 0
- Plant response rating, Cocklebur (cocklebur; [7]): 0
- Plant response rating, Rape (rape; [1]): 0
- Plant response rating, Rape (rape; [2]): 0
- Plant response rating, Rape (rape; [3]): 0
- Rape plant response rating (0 to 10 scale) (rape; Preemergence, Rate 125 g/ha): 0
- Rape plant response rating (rape; [4]): 0
- Rape plant response rating (rape; [5]): 0
- Rape plant response rating (rape; [6]): 0
- Plant response rating, Rape (rape; [7]): 0
- Plant response rating, Barnyardgrass (0 to 10 scale, 0 is no effect, 10 is complete control) (bamyardgrass; [8]): 0
- Barnyardgrass plant response rating (0 to 10 scale, 0 is no effect, 10 is complete control) (bamyardgrass; [9]): 0
- Barnyardgrass plant response rating (bamyardgrass; [10]): 0
- Barnyardgrass plant response rating (bamyardgrass; [11]): 0
- Plant response rating, Sugarbeets (sugar beet; [1]): 0
- Plant response rating, Sugarbeets (sugar beet; [2]): 0
- Plant response rating, Sugarbeets (sugar beet; [3]): 0
- Sugarbeets plant response rating (0 to 10 scale) (sugar beet; Preemergence, Rate 125 g/ha): 0
- Sugarbeets plant response rating (sugar beet; [4]): 0
- Sugarbeets plant response rating (sugar beet; [5]): 0
- Sugarbeets plant response rating (sugar beet; [6]): 0
- Plant response rating, Sugarbeets (sugar beet; [7]): 0

Compound: Cc1ccccc1Cn1c(=O)on(C(=O)N(c2ccc(F)cc2F)C(C)C)c1=O [Compound 87]
- Cocklebur plant response rating (cocklebur; [12]): 0
- Cocklebur plant response rating (cocklebur; [13]): 2
- Cocklebur plant response rating (cocklebur; [3]): 0
- Plant response rating, Cocklebur (cocklebur; [14]): 0
- Plant response rating, Cocklebur (cocklebur; [4]): 0
- Cocklebur plant response rating (cocklebur; [15]): 0
- Cocklebur plant response rating (cocklebur; [16]): 1
- Cocklebur plant response rating (cocklebur; [7]): 2
- Rape plant response rating (rape; [12]): 0
- Rape plant response rating (rape; [13]): 2
- Rape plant response rating (rape; [3]): 0
- Plant response rating, Rape (rape; [14]): 0
- Plant response rating, Rape (rape; [4]): 0
- Rape plant response rating (rape; [15]): 5
- Rape plant response rating (rape; [16]): 0
- Rape plant response rating (rape; [7]): 3
- Barnyardgrass plant response rating (bamyardgrass; [12]): 0
- Barnyardgrass plant response rating (bamyardgrass; Rate 31 g/ha, Postemergence section (flood test species), scale 0 to 10): 0
- Barnyardgrass plant response rating (bamyardgrass; Rate 125 g/ha, Postemergence section (flood test species), scale 0 to 10, 0 no effect, 10 complete control): 0
- Barnyardgrass plant response rating (bamyardgrass; Rate 250 g/ha, headed Pre-emergence (flood test species), scale 0 to 10 (0 no effect, 10 complete control)): 0
- Plant response rating, Barnyardgrass (bamyardgrass; Rate 500 g/ha, headed Pre-emergence (flood test species), scale 0 to 10 (0 no effect, 10 complete control)): 0
- Barnyardgrass plant response rating (bamyardgrass; Rate 1000 g/ha, Pre-emergence (as headed), scale 0 to 10): 0
- Barnyardgrass plant response rating (bamyardgrass; Rate 2000 g/ha, Pre-emergence (as headed), scale 0 to 10, 0 no effect, 10 complete control): 0
- Barnyardgrass plant response rating (bamyardgrass; flood test, listed under Postemergence, Rate 250 g/ha, scale 0 to 10, 0 no effect, 10 complete control): 0
- Sugarbeets plant response rating (sugar beet; [12]): 0
- Sugarbeets plant response rating (sugar beet; [13]): 3
- Sugarbeets plant response rating (sugar beet; [3]): 0
- Plant response rating, Sugarbeets (sugar beet; [14]): 0
- Plant response rating, Sugarbeets (sugar beet; [4]): 3
- Sugarbeets plant response rating (sugar beet; [15]): 9
- Sugarbeets plant response rating (sugar beet; [16]): 3
- Sugarbeets plant response rating (sugar beet; [7]): 8

Compound: CCOC(=O)C(C)N(C(=O)n1oc(=O)n(C2CCCCC2)c1=O)c1ccc(F)cc1 (stereo not shown) [Compound 280]
- Cocklebur plant response rating (cocklebur; [17]): 0
- Cocklebur plant response rating (cocklebur; [4]): 0
- Plant response rating, Cocklebur (cocklebur; [5]): 0
- Cocklebur plant response rating (cocklebur; [18]): 0
- Cocklebur plant response rating (cocklebur; [19]): 0
- Plant response rating, Cocklebur (cocklebur; [20]): 0
- Cocklebur plant response rating (cocklebur; [7]): 0
- Plant response rating, Cocklebur (cocklebur; [21]): 0
- Rape plant response rating (rape; [17]): 0
- Rape plant response rating (rape; [4]): 0
- Plant response rating, Rape (rape; [5]): 0
- Rape plant response rating (rape; [18]): 0
- Rape plant response rating (rape; [19]): 0
- Plant response rating, Rape (rape; [20]): 0
- Rape plant response rating (rape; [7]): 0
- Plant response rating, Rape (rape; [21]): 0
- Barnyardgrass plant response rating (bamyardgrass; Pre-emergence, Rate 1000 g/ha, scale 0 to 10 (0 no effect, 10 complete control)): 0
- Barnyardgrass plant response rating (bamyardgrass; Rate 125 g/ha, Pre-emergence, flood test species, scale 0 to 10 where 0 is no effect and 10 is complete control): 0
- Barnyardgrass plant response rating (bamyardgrass; [10]): 0
- Barnyardgrass plant response rating (bamyardgrass; [11]): 0
- Sugarbeets plant response rating (sugar beet; [17]): 0
- Sugarbeets plant response rating (sugar beet; [4]): 0
- Plant response rating, Sugarbeets (sugar beet; [5]): 0
- Sugarbeets plant response rating (sugar beet; [18]): 0
- Sugarbeets plant response rating (sugar beet; [19]): 0
- Plant response rating, Sugarbeets (sugar beet; [20]): 0
- Sugarbeets plant response rating (sugar beet; [7]): 0
- Plant response rating, Sugarbeets (sugar beet; [21]): 0

Compound: CC(C)N(C(=O)n1oc(=O)n(N2C(C)CCCC2C)c1=O)c1ccc(F)cc1 (stereo not shown) [Compound 382]
- Plant response rating, Cocklebur (cocklebur; [1]): 0
- Plant response rating, Cocklebur (cocklebur; [2]): 0
- Plant response rating, Cocklebur (cocklebur; [3]): 0
- Cocklebur plant response rating (0 to 10 scale) (cocklebur; Preemergence, Rate 125 g/ha): 0
- Cocklebur plant response rating (cocklebur; [4]): 0
- Cocklebur plant response rating (cocklebur; [6]): 0
- Plant response rating, Cocklebur (cocklebur; [7]): 0
- Plant response rating, Rape (rape; [1]): 0
- Plant response rating, Rape (rape; [2]): 0
- Plant response rating, Rape (rape; [3]): 0
- Rape plant response rating (0 to 10 scale) (rape; Preemergence, Rate 125 g/ha): 0
- Rape plant response rating (rape; [4]): 0
- Rape plant response rating (rape; [5]): 0
- Rape plant response rating (rape; [6]): 0
- Plant response rating, Rape (rape; [7]): 0
- Plant response rating, Barnyardgrass (0 to 10 scale, 0 is no effect, 10 is complete control) (bamyardgrass; [8]): 0
- Barnyardgrass plant response rating (0 to 10 scale, 0 is no effect, 10 is complete control) (bamyardgrass; [9]): 0
- Barnyardgrass plant response rating (bamyardgrass; [10]): 0
- Barnyardgrass plant response rating (bamyardgrass; [11]): 0
- Plant response rating, Sugarbeets (sugar beet; [1]): 0
- Plant response rating, Sugarbeets (sugar beet; [2]): 0
- Plant response rating, Sugarbeets (sugar beet; [3]): 0
- Sugarbeets plant response rating (0 to 10 scale) (sugar beet; Preemergence, Rate 125 g/ha): 0
- Sugarbeets plant response rating (sugar beet; [4]): 0
- Sugarbeets plant response rating (sugar beet; [5]): 0
- Sugarbeets plant response rating (sugar beet; [6]): 0
- Plant response rating, Sugarbeets (sugar beet; [7]): 0
